Results from the supplement of paper PMC11665569.

Columns and labels:
KYSE410 = assay: relative viability (fraction of vehicle control); higher = more viable / less inhibited; details: treatment time: 5 days
Method: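 CCK-8 viability of KYSE410 cells transfected with control, YAP/TAZ or TEAD1-4 siRNAs and treated with KRAS G12C inhibitors for 5 days. Values are normalised to vehicle control.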

MIAPACA2 = assay: as above; details: treatment time: 5 days
Method: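 CCK-8 viability of MIAPACA2 cells with empty vector or constitutively active YAP S127A, treated with KRAS G12C inhibitors for 5 days, normalised to vehicle control.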

C=CC(=O)N1CCN(c2ncnc3c(F)c(-c4c(O)cccc4F)c(Cl)cc23)CC1 [ARS1620]
Details	relative viability
KYSE410, log10 concentration (uM): 0, siRNA knockdown: TEAD1-4 siRNA 1	0.606
KYSE410, log10 concentration (uM): 0, siRNA knockdown: TEAD1-4 siRNA 2	0.433
KYSE410, log10 concentration (uM): 0, siRNA knockdown: YAP/TAZ siRNA 1	0.792
KYSE410, log10 concentration (uM): 0, siRNA knockdown: YAP/TAZ siRNA 2	0.59
KYSE410, log10 concentration (uM): 0, siRNA knockdown: negative control siRNA	0.869
KYSE410, log10 concentration (uM): 0.39794, siRNA knockdown: TEAD1-4 siRNA 1	0.338
KYSE410, log10 concentration (uM): 0.39794, siRNA knockdown: TEAD1-4 siRNA 2	0.315
KYSE410, log10 concentration (uM): 0.39794, siRNA knockdown: YAP/TAZ siRNA 1	0.438
KYSE410, log10 concentration (uM): 0.39794, siRNA knockdown: YAP/TAZ siRNA 2	0.428
KYSE410, log10 concentration (uM): 0.39794, siRNA knockdown: negative control siRNA	0.754
KYSE410, log10 concentration (uM): 0.69897, siRNA knockdown: TEAD1-4 siRNA 1	0.25
KYSE410, log10 concentration (uM): 0.69897, siRNA knockdown: TEAD1-4 siRNA 2	0.194
KYSE410, log10 concentration (uM): 0.69897, siRNA knockdown: YAP/TAZ siRNA 1	0.3
KYSE410, log10 concentration (uM): 0.69897, siRNA knockdown: YAP/TAZ siRNA 2	0.288
KYSE410, log10 concentration (uM): 0.69897, siRNA knockdown: negative control siRNA	0.556
KYSE410, log10 concentration (uM): 1, siRNA knockdown: TEAD1-4 siRNA 1	0.106
KYSE410, log10 concentration (uM): 1, siRNA knockdown: TEAD1-4 siRNA 2	0.0618
KYSE410, log10 concentration (uM): 1, siRNA knockdown: YAP/TAZ siRNA 1	0.123
KYSE410, log10 concentration (uM): 1, siRNA knockdown: YAP/TAZ siRNA 2	0.104
KYSE410, log10 concentration (uM): 1, siRNA knockdown: negative control siRNA	0.198
KYSE410, log10 concentration (uM): 1.301029996, siRNA knockdown: TEAD1-4 siRNA 1	0.0328
KYSE410, log10 concentration (uM): 1.301029996, siRNA knockdown: TEAD1-4 siRNA 2	0.0272
KYSE410, log10 concentration (uM): 1.301029996, siRNA knockdown: YAP/TAZ siRNA 1	0.0271
KYSE410, log10 concentration (uM): 1.301029996, siRNA knockdown: YAP/TAZ siRNA 2	0.0298
KYSE410, log10 concentration (uM): 1.301029996, siRNA knockdown: negative control siRNA	0.0407
KYSE410, log10 concentration (uM): -0.30103, siRNA knockdown: TEAD1-4 siRNA 1	0.826
KYSE410, log10 concentration (uM): -0.30103, siRNA knockdown: TEAD1-4 siRNA 2	0.769
KYSE410, log10 concentration (uM): -0.30103, siRNA knockdown: YAP/TAZ siRNA 1	0.897
KYSE410, log10 concentration (uM): -0.30103, siRNA knockdown: YAP/TAZ siRNA 2	0.7891
KYSE410, log10 concentration (uM): -0.30103, siRNA knockdown: negative control siRNA	0.938
KYSE410, log10 concentration (uM): -0.60206, siRNA knockdown: TEAD1-4 siRNA 1	0.943
KYSE410, log10 concentration (uM): -0.60206, siRNA knockdown: TEAD1-4 siRNA 2	0.725
KYSE410, log10 concentration (uM): -0.60206, siRNA knockdown: YAP/TAZ siRNA 1	0.964
KYSE410, log10 concentration (uM): -0.60206, siRNA knockdown: YAP/TAZ siRNA 2	0.86
KYSE410, log10 concentration (uM): -0.60206, siRNA knockdown: negative control siRNA	0.916
KYSE410, log10 concentration (uM): -1, siRNA knockdown: TEAD1-4 siRNA 1	0.909
KYSE410, log10 concentration (uM): -1, siRNA knockdown: TEAD1-4 siRNA 2	0.779
KYSE410, log10 concentration (uM): -1, siRNA knockdown: YAP/TAZ siRNA 1	0.959
KYSE410, log10 concentration (uM): -1, siRNA knockdown: YAP/TAZ siRNA 2	0.883
KYSE410, log10 concentration (uM): -1, siRNA knockdown: negative control siRNA	0.976
KYSE410, log10 concentration (uM): -2, siRNA knockdown: TEAD1-4 siRNA 1	0.981
KYSE410, log10 concentration (uM): -2, siRNA knockdown: TEAD1-4 siRNA 2	0.876
KYSE410, log10 concentration (uM): -2, siRNA knockdown: YAP/TAZ siRNA 1	0.988
KYSE410, log10 concentration (uM): -2, siRNA knockdown: YAP/TAZ siRNA 2	0.996
KYSE410, log10 concentration (uM): -2, siRNA knockdown: negative control siRNA	0.9803
MIAPACA2, log10 concentration (uM): 0, ectopic expression: YAP S127A	1.05
MIAPACA2, log10 concentration (uM): 0, ectopic expression: empty vector (YAP experiment)	1.01
MIAPACA2, log10 concentration (uM): 0.39794, ectopic expression: YAP S127A	0.984
MIAPACA2, log10 concentration (uM): 0.39794, ectopic expression: empty vector (YAP experiment)	0.743
MIAPACA2, log10 concentration (uM): 0.69897, ectopic expression: YAP S127A	0.977
MIAPACA2, log10 concentration (uM): 0.69897, ectopic expression: empty vector (YAP experiment)	0.542
MIAPACA2, log10 concentration (uM): 1, ectopic expression: YAP S127A	0.913
MIAPACA2, log10 concentration (uM): 1, ectopic expression: empty vector (YAP experiment)	0.25
MIAPACA2, log10 concentration (uM): 1.301029996, ectopic expression: YAP S127A	0.315
MIAPACA2, log10 concentration (uM): 1.301029996, ectopic expression: empty vector (YAP experiment)	0.0583
